Experimental data from patent US6647980B1, “Method for administration of active substances to the olfactory region” (priority 1997, dated 2003).

Assay: Dynamic viscosity, Brookfield Digital Viscometer
Type: physicochemical
Conditions: dye preparation
Experimental: The viscosity of the preparations were determined by means of a Brookfield Digital Viscometer, model DV-I+, version 2.0, at 25° after stabilisation for 30 min.

Viscosity (cP) (NaCMC conc. 0 (water)): 1 (water) cP
Viscosity (cP) (NaCMC conc. 0.2 (w/v), with Tween 40 and methyl paraoxybenzoate): 22.0 cP
Viscosity (cP) (NaCMC conc. 0.5 (w/v), with Tween 40 and methyl paraoxybenzoate): 85.2 cP
Substance: brilliant blue dye
